The subject of data set [1] is recombinant NL-RLuc virus (NL4-3 with Renilla Luciferase gene). Nature of the data set: Inhibition of HIV replication (NL-RLuc luciferase reporter virus in MT-2 cells). Format: cell-based. The conditions noted are these: NL43, 120 h. An excerpt: Inhibition of HIV Replication:
A recombinant NL-RLuc proviral clone was constructed in which a section of the nef gene from NL4-3 was replaced with the Renilla Luciferase gene. This virus is fully infectious and can undergo multiple cycles of replication in cell culture. In addition, the luciferous reporter provides a simple and easy method for quantitating the extent of virus growth and consequently, the antiviral activity of test compounds. The plasmid pNLRLuc contains the proviral NL-Rluc DNA cloned into pUC18 at the PvuII site. The NL-RLuc virus was prepared by transfection of 293T cells with the plasmid pNLRLuc. Transfections were performed using the LipofectAMINE PLUS kit from Invitrogen (Carlsbad, Calif.) according to the manufacturer and the virus generated was titered in MT-2 cells. For susceptibility analyses, the titrated virus was used to infect MT-2 cells in the presence of compound, and after 5 days of incubation, cells were processed and quantitated for virus growth by the amount of expressed luciferase. Assay media was RPMI 1640 supplemented with 10% heat inactivated fetal bovine serum (FBS), 100 units/ml penicillin G/100 units/ml streptomycin, 10 mM HEPES buffer pH 7.55 and 2 mM L-glutamine. The results from at least 2 experiments were used to calculate the EC50 values. Luciferase was quantitated using the Dual Luciferase kit from Promega (Madison, Wis.). Susceptibility of viruses to compounds was determined by incubation in the presence of serial dilutions of the compound. The 50% effective concentration (EC50) was calculated by using the exponential form of the median effect equation where (Fa)=1/[1+(ED50/drug conc.)^m] (Johnson V A, Byington R T. Infectivity Assay. In Techniques in HIV Research. ed. Aldovini A, Walker B D. 71-76. New York: Stockton Press. 1990).
(In general: Reporter assays use an easily measured gene product as a stand-in for the process of interest.)

A word on the EC50: it is the concentration at which the effect is half-maximal.

Like-named read-outs stand apart in the source and are kept apart here.

`CCOC(=O)[C@@H](OC(C)(C)C)c1c(C)nc2cc3nn2c1N1CCC(C)(CC1)OCC=CC[C@H](C)Oc1ccc(C(=O)OC)cc1-c1cccc-3c1` gave a ring closure, yield of all isomers (from C=CCOC1(C)CCN(c2c([C@H](OC(C)(C)C)C(=O)OCC)c(C)nc3cc(-c4cccc(-c5cc(C(=O)OC)ccc5O[C@@H](C)CC=C)c4)nn23)CC1, rcm bond, Hoveyda-Grubbs II (with CuI), DCE, 1.52 mM, 80.0 °C, 3.0 h) of 83%. Take `Cc1ccc2cc1OCCN(Cc1ccccc1)CCOc1cc(F)ccc1-c1cccc(c1)-c1cc3nc(C)c([C@H](OC(C)(C)C)C(=O)O)c-2n3n1` [Example 18, (2S)-2-(tert-Butoxy)-2-{18-fluoro-4-methyl-21,29,33-trioxa-5,7,8-triazaoctacyclo [28.6.2.1^6,^9.1^10,^14.1^23,^27.0^2,^7.0^15,^20.0^34,^38]hentetraconta-1(36),2,4,6(41),8,10(40),11,13, 15(20),16,18,23,25,27(39),34,37-hexadecaen-3-yl}acetic acid]: the EC50 in data set [1] stood at 1140 nM. The same measure, in the same setting: under `C=C1COc2cc(F)ccc2-c2cccc(c2)-c2cc3nc(C)c([C@H](OC(C)(C)C)C(=O)O)c(n3n2)-c2ccc(F)cc2OC1` [Example 19, (2S)-2-(tert-butoxy)-2-{13,23-difluoro-7-methyl-18-methylidene-16,20-dioxa-3,4,6-triazahexacyclo[25.3.1.1^2,5.0^4,9.0^10,15.0^21,26]dotriaconta-1(31),2,5(32),6,8,10,12,14,21(26),22,24,27,29-tridecaen-8-yl}acetic acid] stands 3590 nM. For the compound `Cc1ccc2c(c1)OCCCCCOc1cc(F)ccc1-c1cccc(c1)-c1cc3nc(C)c([C@H](OC(C)(C)C)C(=O)O)c-2n3n1` [Example 20, (2S)-2-(tert-butoxy)-2-{25-fluoro-7, 13-dimethyl-16, 22-dioxa-3,4,6-triazahexacyclo[27.3.1.1^2,5.0^4,9.0^10,15.0^23,28]tetratriaconta-1(33),2,5(34),6,8,10,12,14, 23(28),24,26,29,31-tridecaen-8-yl}acetic acid], the EC50 in data set [1] came to 2780 nM. As for `Cc1nc2cc3nn2c(c1[C@H](OC(C)(C)C)C(=O)O)-c1ccc2c(c1)C(CCO2)OCCCCCOc1cc(F)ccc1-c1cccc-3c1` (stereo partly drawn) [Example 21, (2S)-2-(tert-Butoxy)-2-{18-fluoro-4-methyl-21,27,31-trioxa-5,7,8-triazaheptacyclo[26.6.2.1^6,9.1^10,14.0^2,7.0^15,20.0^32,36]octatriaconta-1(34),2,4,6(38),8,10(37),11,13,15(20),16,18,32,35-tridecaen-3-yl}acetic acid], in data set [1], the EC50 turned out to be 695 nM. The same measure, in the same setting: under `Cc1nc2cc3nn2c(c1[C@H](OC(C)(C)C)C(=O)O)-c1ccc2c(c1)C(CCO2)OCCCCCCOc1cc(F)ccc1-c1cccc-3c1` (stereo partly drawn) [Example 22, (2S)-2-(tert-butoxy)-2-{18-fluoro-4-methyl-21,28,32-trioxa-5,7,8-triazaheptacyclo[27.6.2.1^6,9.1^10,14.0^2,7.0^15,20.0^33,37]nonatriaconta-1(35),2,4,6(39),8,10(38),11,13,15(20),16,18,33,36-tridecaen-3-yl}acetic acid] stands 1440 nM. Compound `Cc1nc2cc3nn2c(c1[C@H](OC(C)(C)C)C(=O)O)-c1ccc2c(c1)C(CCO2)OCc1cccc(c1)COc1cc(F)ccc1-c1cccc-3c1` (stereo partly drawn) [Example 23, (2S)-2-(tert-butoxy)-2-{18-fluoro-4-methyl-21, 29, 33-trioxa-5,7,8-triazaoctacyclo[28.6.2.1^6,9.1^10,14.1^23,27.0^2,7.0^15,20.0^34,38]hentetraconta-1(36),2,4,6(41),8,10(40),11,13,15(20),16,18, 23, 25, 27(39),34,37-hexadecaen-3-yl}acetic acid] gave a ring closure, yield of all isomers (from COC(=O)[C@@H](OC(C)(C)C)c1c(C)nc2cc(-c3cccc(-c4ccc(F)cc4OCc4cccc(CBr)c4)c3)nn2c1-c1ccc2c(c1)C(O)CCO2, ether bond, NaH, THF, 2.77 mM, 25.0 °C, 5.0 h, 2 steps) of 7.2%. For the same compound, the EC50 in data set [1] came to 123 nM.

As for `Cc1nc2cc3nn2c(c1[C@H](OC(C)(C)C)C(=O)O)N1CCC(C)(CC1)OCCOCCOc1cc(F)ccc1-c1cccc-3c1` [Example 24, (2S)-2-(tert-Butoxy)-2-{18-fluoro-4,28-dimethyl-21, 24, 27-trioxa-1,5,7,8-tetraazahexacyclo[26.2.2.1^6,9.1^10,14.0^2,7.0^15,20]tetratriaconta-2,4,6(34),8,10(33),11,13,15(20),16,18-decaen-3-yl}acetic acid], the EC50 in data set [1] came out at 6 nM.

For the compound `Cc1nc2cc3nn2c(c1[C@H](OC(C)(C)C)C(=O)O)N1CCC(C)(CC1)OCCCC[C@H](C)Oc1ccc(C(=O)NCCc2ccc(F)cc2)cc1-c1cccc-3c1` [Example 25, (2S)-2-(tert-Butoxy)-2-[(22S)-17-{[2-(4-fluorophenyl)ethyl]carbamoyl}-4,22,28-trimethyl-21,27-dioxa-1,5,7,8-tetraazahexacyclo[26.2.2.1^6,9.1^10,14.0^2,7.0^15,20]tetratriaconta-2,4,6(34),8,10(33),11,13,15(20),16,18-decaen-3-yl]acetic acid], the EC50 in data set [1] came out at 4 nM. With `Cc1nc2cc3nn2c(c1[C@H](OC(C)(C)C)C(=O)O)N1CCC(C)(CC1)OCCCC[C@H](C)Oc1ccc(C(=O)N(C)CCc2ccc(F)cc2)cc1-c1cccc-3c1` [Example 26, (2S)-2-(tert-Butoxy)-2-[(22S)-17-{[2-(4-fluorophenyl)ethyl](methyl)carbamoyl}-4, 22, 28-trimethyl-21, 27-dioxa-1,5,7,8-tetraazahexacyclo[26.2.2.1^6,9.1^10,14.0^2,7.0^15,20]tetratriaconta-2,4,6(34),8,10(33),11,13,15(20),16,18-decaen-3-yl]acetic acid], in data set [1], the EC50 was 3 nM.

For the origin of these results see patent US9834566B2, “Pyrazolopyrimidine macrocycles as inhibitors of human immunodeficiency virus replication” (priority 2014, dated 2017).
